Assay results as given in patent US20240247015A1, “PHOSPHORUS DERIVATIVES AS NOVEL SOS1 INHIBITORS” (BAYER AKTIENGESELLSCHAFT, priority 2021, published 2024).

Target: interaction of human SOS1 (SOS1) with human K-RasG12C (Homo sapiens (Human), UniProt Q07889)
Test: Biochemical assay: hK-RasG12C interaction assay with hSOS1 (HTRF)
Format: binding
Details: GST-hK-RasG12C with His-hSOS1, 60 min incubation at 20° C., mean, read-out: K-RasG12C - SOS interaction assay IC50 (mean)
Outline: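 Compounds, duplicates at 11 concentrations from 0.073 nM to 20 µM, were preincubated 2 min with 10 nM GST-hK-RasG12C, then 20 nM His-hSOS1 was added, all at 20 °C. After 60 min, 665/620 nm HTRF ratio normalized to DMSO and SOS1-free controls; IC50 by 4-parameter fit.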

Sequence of interaction of human SOS1 (SOS1) with human K-RasG12C (Q07889 564-1049 limits assumed): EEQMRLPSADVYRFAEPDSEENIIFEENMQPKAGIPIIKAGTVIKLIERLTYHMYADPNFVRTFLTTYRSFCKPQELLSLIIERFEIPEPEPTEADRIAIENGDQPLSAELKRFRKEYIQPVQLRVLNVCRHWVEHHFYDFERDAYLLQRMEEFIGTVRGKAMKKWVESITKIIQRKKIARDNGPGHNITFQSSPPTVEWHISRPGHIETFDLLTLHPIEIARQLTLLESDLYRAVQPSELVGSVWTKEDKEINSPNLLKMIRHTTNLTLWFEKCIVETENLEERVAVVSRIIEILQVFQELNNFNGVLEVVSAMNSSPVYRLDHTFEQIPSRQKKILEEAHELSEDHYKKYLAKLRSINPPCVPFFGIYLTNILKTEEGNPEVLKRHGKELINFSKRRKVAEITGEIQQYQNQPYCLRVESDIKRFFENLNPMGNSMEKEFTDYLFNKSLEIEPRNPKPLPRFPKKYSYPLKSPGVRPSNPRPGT

IC50 [nM]	SMILES
87.5	CCNC(=O)C(F)(F)c1cccc([C@@H](C)Nc2nc(C)nc3cnc(P(C)(C)=O)cc23)c1F [Example 49, 2-{3-[(1R)-1-{[6-(dimethylphosphoryl)-2-methylpyrido[3,4-d]pyrimidin-4-yl]amino}ethyl]-2-fluorophenyl}-N-ethyl-2,2-difluoroacetamide]
156	Cc1nc(N[C@H](C)c2cccc(C(F)(F)C(=O)N(C)C)c2F)c2cc(P(C)(C)=O)ncc2n1 [Example 50, 2-{3-[(1R)-1-{[6-(dimethylphosphoryl)-2-methylpyrido[3,4-d]pyrimidin-4-yl]amino}ethyl]-2-fluorophenyl}-2,2-difluoro-N,N-dimethylacetamide]
86.3	CNC(=O)C(F)(F)c1cccc([C@@H](C)Nc2nc(C)nc3cnc(P(C)(C)=O)cc23)c1F [Example 51, 2-{3-[(1R)-1-{[6-(dimethylphosphoryl)-2-methylpyrido[3,4-d]pyrimidin-4-yl]amino}ethyl]-2-fluorophenyl}-2,2-difluoro-N-methylacetamide]
35.5	Cc1nc(N[C@H](C)c2cccc(C(F)F)c2F)c2cc(P3(=O)CCN(C)CC3)ncc2n1 [Example 52, 4-[4-({(1R)-1-[3-(difluoromethyl)-2-fluorophenyl]ethyl}amino)-2-methylpyrido[3,4-d]pyrimidin-6-yl]-1-methyl-1,4lambda^5-azaphosphinan-4-one]
65.4	Cc1nc(N[C@H](C)c2cccc(C(F)(F)F)c2C)c2cc(P3(=O)CCN(C(C)C)CC3)ncc2n1 [Example 53, 4-[2-methyl-4-({(1R)-1-[2-methyl-3-(trifluoromethyl)phenyl]ethyl}amino)pyrido[3,4-d]pyrimidin-6-yl]-1-(propan-2-yl)-1,4lambda^5-azaphosphinan-4-one]
22.5	Cc1nc(N[C@H](C)c2cccc(C(F)(F)C(C)(C)O)c2F)c2cc(P3(=O)CCN(Cc4ccccc4)CC3)ncc2n1 [Example 54, 1-benzyl-4-[4-({(1R)-1-[3-(1,1-difluoro-2-hydroxy-2-methylpropyl)-2-fluorophenyl]ethyl}amino)-2-methylpyrido[3,4-d]pyrimidin-6-yl]-1,4lambda^5-azaphosphinan-4-one]
26.2	Cc1nc(N[C@H](C)c2cccc(C(F)(F)F)c2F)c2cc(P(C)(C)=O)ncc2n1 [Example 55, 6-(dimethylphosphoryl)-N-{(1R)-1-[2-fluoro-3-(trifluoromethyl)phenyl]ethyl}-2-methylpyrido[3,4-d]pyrimidin-4-amine]
74.1	Cc1nc(N[C@H](C)c2cccc(Br)c2F)c2cc(P(C)(C)=O)ncc2n1 [Example 56, N-[(1R)-1-(3-bromo-2-fluorophenyl)ethyl]-6-(dimethylphosphoryl)-2-methylpyrido[3,4-d]pyrimidin-4-amine]
19.3	CC(=O)N1CCP(=O)(c2cc3c(N[C@H](C)c4cccc(C(F)F)c4)nc(C)nc3cn2)CC1 [Example 57, 1-acetyl-4-[4-{{(1R)-1-[3-(difluoromethyl)phenyl]ethyl}amino)-2-methylpyrido[3,4-d]pyrimidin-6-yl]-1,4lambda^5-azaphosphinan-4-one]
6.33	CC(=O)N1CCP(=O)(c2cc3c(N[C@H](C)c4cc(C)cc(C(F)(F)F)c4C)nc(C)nc3cn2)CC1 [Example 58, 1-acetyl-4-[4-{{(1R)-1-[2,5-dimethyl-3-(trifluoromethyl)phenyl]ethyl}amino)-2-methylpyrido[3,4-d]pyrimidin-6-yl]-1,4lambda^5-azaphosphinan-4-one]
7.06	Cc1nc(N[C@H](C)c2cccc(C(F)(F)CO)c2F)c2cc(P3(=O)CC=CC3)ncc2n1 [Example 59, 1-[4-{{(1R)-1-[3-(1,1-difluoro-2-hydroxyethyl)-2-fluorophenyl]ethyl}amino)-2-methylpyrido[3,4-d]pyrimidin-6-yl]-2,5-dihydro-1H-1lambda^5-phosphol-1-one]
13.5	[2H]C([2H])(O)C(F)(F)c1cccc([C@@H](C)Nc2nc(C)nc3cnc(P(C)(C)=O)cc23)c1F [Example 60, 2-{3-[(1R)-1-{[6-(dimethylphosphoryl)-2-methylpyrido[3,4-d]pyrimidin-4-yl]amino}ethyl]-2-fluorophenyl}-2,2-difluoro(^2H2)ethan-1-ol]
9.82	[2H]C([2H])(O)C(F)(F)c1cccc([C@@H](C)Nc2nc(C)nc3cnc(P4(=O)CCCC4)cc23)c1F [Example 61, 1-(4-{[(1R)-1-{3-[1,1-difluoro-2-hydroxy(^2H2)ethyl]-2-fluorophenyl}ethyl]amino}-2-methylpyrido[3,4-d]pyrimidin-6-yl)-1lambda^5-phospholan-1-one]
13.5	Cc1nc(N[C@H](C)c2cccc(C(F)(F)CO)c2F)c2cc(P(C)(C)=O)ncc2n1 [Example 62, 2-{3-[(1R)-1-{[6-(dimethylphosphoryl)-2-methylpyrido[3,4-d]pyrimidin-4-yl]amino}ethyl]-2-fluorophenyl}-2,2-difluoroethan-1-ol]
10.1	Cc1nc(N[C@H](C)c2cccc(C(F)(F)CO)c2F)c2cc(P3(=O)CCCC3)ncc2n1 [Example 63, 1-[4-{{(1R)-1-[3-(1,1-difluoro-2-hydroxyethyl)-2-fluorophenyl]ethyl}amino)-2-methylpyrido[3,4-d]pyrimidin-6-yl]-1lambda^5-phospholan-1-one]
17.8	CCP(=O)(CC)c1cc2c(N[C@H](C)c3cccc(C(F)(F)CO)c3F)nc(C)nc2cn1 [Example 64, 2-{3-[(1R)-1-{[6-(diethylphosphoryl)-2-methylpyrido[3,4-d]pyrimidin-4-yl]amino}ethyl]-2-fluorophenyl}-2,2-difluoroethan-1-ol]
66.9	CCP(C)(=O)c1cc2c(N[C@H](C)c3cccc(C(F)(F)C(C)(C)O)c3F)nc(C)nc2cn1 (stereo partly drawn) [Example 67, 1-{3-[(1R)-1-{{6-[ethyl(methyl)phosphoryl]-2-methylpyrido[3,4-d]pyrimidin-4-yl}amino)ethyl]-2-fluorophenyl}-1,1-difluoro-2-methylpropan-2-ol]
27.6	Cc1nc(N[C@H](C)c2cccc(C(F)(F)C(C)(C)O)c2F)c2cc(P(C)(=O)C(C)C)ncc2n1 (stereo partly drawn) [Example 70, 1,1-difluoro-1-{2-fluoro-3-[(1R)-1-({2-methyl-6-[methyl(propan-2-yl)phosphoryl]pyrido[3,4-d]pyrimidin-4-yl}amino)ethyl]phenyl}-2-methylpropan-2-ol]
12	Cc1nc(N[C@H](C)c2cccc(C(F)(F)C(C)(C)O)c2F)c2cc(P3(=O)CC=CC3)ncc2n1 [Example 85, 1-[4-({(1R)-1-[3-(1,1-difluoro-2-hydroxy-2-methylpropyl)-2-fluorophenyl]ethyl}amino)-2-methylpyrido[3,4-d]pyrimidin-6-yl]-2,5-dihydro-1H-1lambda^5-phosphol-1-one]
286	Cc1nc(N[C@H](C)c2cccc(C(F)(F)F)c2C)c2cc(P3(=O)CCN(C(=O)OC(C)(C)C)CC3)nc(C)c2n1 [Example 91, tert-butyl 4-[2,8-dimethyl-4-({(1R)-1-[2-methyl-3-(trifluoromethyl)phenyl]ethyl}amino)pyrido[3,4-d]pyrimidin-6-yl]-4-oxo-1,4lambda^5-azaphosphinane-1-carboxylate]
77.2	CCP(=O)(CC)c1cc2c(N[C@H](C)c3cccc(C(F)F)c3F)nc(C)nc2cn1 [Example 92, 6-(diethylphosphoryl)-N-{(1R)-1-[3-(difluoromethyl)-2-fluorophenyl]ethyl}-2-methylpyrido[3,4-d]pyrimidin-4-amine]
37	COCC(F)(F)c1cccc([C@@H](C)Nc2nc(C)nc3cnc(P4(=O)CCCC4)cc23)c1F [Example 93, 1-[4-{{(1R)-1-[3-(1,1-difluoro-2-methoxyethyl)-2-fluorophenyl]ethyl}amino)-2-methylpyrido[3,4-d]pyrimidin-6-yl]-1lambda^5-phospholan-1-one]
46.5	COCC(F)(F)c1cccc([C@@H](C)Nc2nc(C)nc3cnc(P(C)(C)=O)cc23)c1F [Example 94, N-{(1R)-1-[3-(1,1-difluoro-2-methoxyethyl)-2-fluorophenyl]ethyl}-6-(dimethylphosphoryl)-2-methylpyrido[3,4-d]pyrimidin-4-amine]
23.9	Cc1nc(N[C@H](C)c2cc(N)cc(C(F)(F)F)c2)c2cc(P3(=O)CCCC3)ncc2n1 [Example 95, 1-[4-{{(1R)-1-[3-amino-5-(trifluoromethyl)phenyl]ethyl}amino)-2-methylpyrido[3,4-d]pyrimidin-6-yl]-1lambda^5-phospholan-1-one]
50.2	CCP(=O)(CC)c1cc2c(N[C@H](C)c3cccc(C(F)(F)F)c3C)nc(C)nc2cn1 [Example 96, 6-(diethylphosphoryl)-2-methyl-N-{(1R)-1-[2-methyl-3-(trifluoromethyl)phenyl]ethyl}pyrido[3,4-d]pyrimidin-4-amine]
13.6	Cc1nc(N[C@H](C)c2cc(N)cc(C(F)(F)F)c2)c2cc(P(C)(C)=O)ncc2n1 [Example 97, N-{(1R)-1-[3-amino-5-(trifluoromethyl)phenyl]ethyl}-6-(dimethylphosphoryl)-2-methylpyrido[3,4-d]pyrimidin-4-amine]
139	Cc1nc(N[C@H](C)c2cccc(C(F)(F)F)c2C)c2cc(P(=O)(C(C)C)C(C)C)ncc2n1 [Example 98, 6-[di(propan-2-yl)phosphoryl]-2-methyl-N-{(1R)-1-[2-methyl-3-(trifluoromethyl)phenyl]ethyl}pyrido[3,4-d]pyrimidin-4-amine]
32.1	Cc1nc(N[C@H](C)c2cccc(C(F)(F)F)c2C)c2cc(P3(=O)CCCC3)ncc2n1 [Example 99, 1-[2-methyl-4-{{(1R)-1-[2-methyl-3-(trifluoromethyl)phenyl]ethyl}amino)pyrido[3,4-d]pyrimidin-6-yl]-1lambda^5-phospholan-1-one]
4.89	Cc1nc(N[C@H](C)c2cccc(C(F)(F)F)c2C)c2cc(P3(=O)CCCC3)c(C)nc2n1 [Example 100, 1-[2,7-dimethyl-4-{{(1R)-1-[2-methyl-3-(trifluoromethyl)phenyl]ethyl}amino)pyrido[2,3-d]pyrimidin-6-yl]-1lambda^5-phospholan-1-one]
